Several values for one entry are separate records, joined by “and”; a condition that tells them apart may be missing. Equal values may be shown once. Toxic doses and inconclusive results are not listed. No stated cut-off is given here; in the data, active means T/C of 150% or more; inactive means T/C below 125%.
System: L1210 leukemia ip in BDF1 mice, survival T/C
Assay: NCI In Vivo Anticancer Drug Screen. Data for tumor model L1210 Leukemia (intraperitoneal) in B6D2F1 (BDF1) mice
Settings: endpoint: mean survival time, higher = longer survival
Procedure, shortened: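 Value reflects the ratio of survival in compound-treated mice to survival in vehicle-treated controls, with both groups carrying the same transplanted tumor.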

[1] = dose: 100.0 mg/kg/injection, schedule: Q01DX001 (ip), vehicle: saline with Tween-80
[2] = dose: 100.0 mg/kg/injection, schedule: Q04DX003 (ip), vehicle: saline with Tween-80
[3] = dose: 200.0 mg/kg/injection, schedule: Q01DX001 (ip), vehicle: saline with Tween-80
[4] = dose: 200.0 mg/kg/injection, schedule: Q04DX003 (ip), vehicle: saline with Tween-80
[5] = dose: 400.0 mg/kg/injection, schedule: Q01DX001 (ip), vehicle: saline with Tween-80
[6] = dose: 400.0 mg/kg/injection, schedule: Q04DX003 (ip), vehicle: saline with Tween-80
[7] = dose: 100.0 mg/kg/injection, schedule: Q01DX001 (ip), vehicle: carboxymethylcellulose (CMC)
[8] = dose: 200.0 mg/kg/injection, schedule: Q01DX001 (ip), vehicle: carboxymethylcellulose (CMC)
[9] = dose: 400.0 mg/kg/injection, schedule: Q01DX001 (ip), vehicle: carboxymethylcellulose (CMC)
[10] = dose: 100.0 mg/kg/injection, schedule: Q04DX003 (ip), vehicle: Klucel (hydroxypropylcellulose) (HPC)
[11] = dose: 200.0 mg/kg/injection, schedule: Q04DX003 (ip), vehicle: Klucel (hydroxypropylcellulose) (HPC)

Measured: T/C

Cc1cc(C)c(NC(=S)NC(=O)C(C)Oc2ccccc2)c(C)c1 (stereo not given)
inactive: [1] 97 % of control | dose: 100.0 mg/kg/injection, schedule: Q01DX009 (ip), vehicle: saline with Tween-80 96 % of control and 100 % of control | dose: 100.0 mg/kg/injection, schedule: Q04DX002 (ip), vehicle: saline with Tween-80 101 % of control and 104 % of control | [2] 93 % of control | [3] 97 % of control | dose: 200.0 mg/kg/injection, schedule: Q01DX009 (ip), vehicle: saline with Tween-80 97 % of control and 92 % of control | dose: 200.0 mg/kg/injection, schedule: Q04DX002 (ip), vehicle: saline with Tween-80 97 % of control and 110 % of control | [4] 93 % of control | [5] 103 % of control | dose: 400.0 mg/kg/injection, schedule: Q01DX009 (ip), vehicle: saline with Tween-80 102 % of control | dose: 400.0 mg/kg/injection, schedule: Q04DX002 (ip), vehicle: saline with Tween-80 93 % of control and 121 % of control | [6] 93 % of control

CC(CO)(CO)N=Cc1cc(I)cc(I)c1O
inactive: [7] 93 % of control | [8] 98 % of control | [9] 95 % of control

ClC(Cl)(Cl)C(Cl)(Cl)c1ccc(C(Cl)(Cl)C(Cl)(Cl)Cl)cc1
inactive: dose: 100.0 mg/kg/injection, schedule: Q01DX009 (ip), vehicle: saline sonified 95 % of control | [10] 89 % of control | dose: 200.0 mg/kg/injection, schedule: Q01DX009 (ip), vehicle: saline sonified 94 % of control | [11] 94 % of control | dose: 400.0 mg/kg/injection, schedule: Q01DX009 (ip), vehicle: saline sonified 94 % of control | dose: 400.0 mg/kg/injection, schedule: Q04DX003 (ip), vehicle: Klucel (hydroxypropylcellulose) (HPC) 96 % of control

CCOP(=S)(S)OCC
inactive: dose: 100.0 mg/kg/injection, schedule: Q04DX003 (ip), vehicle: saline 97 % of control and 98 % of control | dose: 200.0 mg/kg/injection, schedule: Q04DX003 (ip), vehicle: saline 95 % of control and 93 % of control | dose: 400.0 mg/kg/injection, schedule: Q04DX003 (ip), vehicle: saline 98 % of control

O=S(=O)(OCC#CCOS(=O)(=O)c1cccs1)c1cccs1
inactive: dose: 6.2 mg/kg/injection, schedule: Q01DX009 (ip), vehicle: Klucel (hydroxypropylcellulose) (HPC) 101 % of control | dose: 12.5 mg/kg/injection, schedule: Q01DX009 (ip), vehicle: Klucel (hydroxypropylcellulose) (HPC) 111 % of control | dose: 25.0 mg/kg/injection, schedule: Q01DX009 (ip), vehicle: Klucel (hydroxypropylcellulose) (HPC) 105 % of control | dose: 100.0 mg/kg/injection, schedule: Q01DX001 (ip), vehicle: Klucel (hydroxypropylcellulose) (HPC) 109 % of control | [10] 97 % of control | dose: 200.0 mg/kg/injection, schedule: Q01DX001 (ip), vehicle: Klucel (hydroxypropylcellulose) (HPC) 106 % of control | [11] 105 % of control | dose: 400.0 mg/kg/injection, schedule: Q01DX001 (ip), vehicle: Klucel (hydroxypropylcellulose) (HPC) 103 % of control

CN(C)CC/C(=N\Nc1ccc([N+](=O)[O-])cc1[N+](=O)[O-])c1ccccc1
inactive: [1] 94 % of control | [3] 92 % of control | [5] 92 % of control

CC(C)(C)CC(C)(C)c1ccc(O)cc1
inactive: dose: 62.5 mg/kg/injection, schedule: Q01DX Z (ip), vehicle: saline 95 % of control | [7] 94 % of control | dose: 125.0 mg/kg/injection, schedule: Q01DX Z (ip), vehicle: saline 101 % of control | [8] 100 % of control | dose: 250.0 mg/kg/injection, schedule: Q01DX Z (ip), vehicle: saline 90 % of control | [9] 100 % of control | dose: 500.0 mg/kg/injection, schedule: Q01DX Z (ip), vehicle: saline 100 % of control

CCOC(=O)C(CCC(c1ccc(OC)cc1)c1ccc(OC)cc1)C(=O)OCC
inactive: dose: 100.0 mg/kg/injection, schedule: Q01DX001 (ip), vehicle: saline 98 % of control | dose: 200.0 mg/kg/injection, schedule: Q01DX001 (ip), vehicle: saline 93 % of control | dose: 400.0 mg/kg/injection, schedule: Q01DX001 (ip), vehicle: saline 94 % of control

Cc1nc(S(C)(=O)=O)nc(S(C)(=O)=O)c1Cl
inactive: dose: 1.5 mg/kg/injection, schedule: Q01DX001 (ip), vehicle: Klucel (hydroxypropylcellulose) (HPC) 92 % of control | dose: 3.0 mg/kg/injection, schedule: Q01DX001 (ip), vehicle: Klucel (hydroxypropylcellulose) (HPC) 95 % of control | dose: 6.0 mg/kg/injection, schedule: Q01DX001 (ip), vehicle: Klucel (hydroxypropylcellulose) (HPC) 104 % of control | dose: 12.0 mg/kg/injection, schedule: Q01DX001 (ip), vehicle: Klucel (hydroxypropylcellulose) (HPC) 104 % of control | dose: 12.5 mg/kg/injection, schedule: Q01DX001 (ip), vehicle: Klucel (hydroxypropylcellulose) (HPC) 107 % of control

O=P1(Nc2ccccc2)OCCCN1Cc1ccccc1Cl (stereo not given)
inactive: dose: 50.0 mg/kg/injection, schedule: Q01DX001 (ip), vehicle: carboxymethylcellulose (CMC) 98 % of control | [7] 98 % of control | [8] 98 % of control | [9] 93 % of control

C1=Nc2ccccc2/C1=C/c1ccc2c(c1)OCO2
inactive: dose: 100.0 mg/kg/injection, schedule: Q01DX009 (ip), vehicle: carboxymethylcellulose (CMC) 97 % of control and 102 % of control | dose: 100.0 mg/kg/injection, schedule: Q04DX002 (ip), vehicle: carboxymethylcellulose (CMC) 93 % of control and 102 % of control | dose: 100.0 mg/kg/injection, schedule: Q04DX003 (ip), vehicle: carboxymethylcellulose (CMC) 98 % of control | dose: 200.0 mg/kg/injection, schedule: Q01DX009 (ip), vehicle: carboxymethylcellulose (CMC) 96 % of control and 87 % of control | dose: 200.0 mg/kg/injection, schedule: Q04DX002 (ip), vehicle: carboxymethylcellulose (CMC) 93 % of control and 98 % of control | dose: 200.0 mg/kg/injection, schedule: Q04DX003 (ip), vehicle: carboxymethylcellulose (CMC) 93 % of control | dose: 400.0 mg/kg/injection, schedule: Q01DX009 (ip), vehicle: carboxymethylcellulose (CMC) 93 % of control and 94 % of control | dose: 400.0 mg/kg/injection, schedule: Q04DX002 (ip), vehicle: carboxymethylcellulose (CMC) 104 % of control and 107 % of control | dose: 400.0 mg/kg/injection, schedule: Q04DX003 (ip), vehicle: carboxymethylcellulose (CMC) 96 % of control

c1ccc(C(c2ccccc2)[P+](c2ccccc2)(c2ccccc2)c2ccccc2)cc1
inactive: dose: 0.75 mg/kg/injection, schedule: Q01DX005 (ip), vehicle: gum acacia 106 % of control and 110 % of control | dose: 1.5 mg/kg/injection, schedule: Q01DX005 (ip), vehicle: gum acacia 106 % of control | dose: 1.5 mg/kg/injection, schedule: Q01DX009 (ip), vehicle: gum acacia 111 % of control | dose: 3.0 mg/kg/injection, schedule: Q01DX009 (ip), vehicle: gum acacia 111 % of control | dose: 3.12 mg/kg/injection, schedule: Q04DX002 (ip), vehicle: gum acacia 100 % of control | dose: 6.25 mg/kg/injection, schedule: Q01DX005 (ip), vehicle: gum acacia 95 % of control | dose: 6.25 mg/kg/injection, schedule: Q04DX002 (ip), vehicle: gum acacia 95 % of control | dose: 12.5 mg/kg/injection, schedule: Q04DX002 (ip), vehicle: gum acacia 111 % of control and 92 % of control

c1ccc([P+](CCC[P+](c2ccccc2)(c2ccccc2)c2ccccc2)(c2ccccc2)c2ccccc2)cc1
inactive: dose: 2.0 mg/kg/injection, schedule: Q01DX009 (ip), vehicle: saline 105 % of control | dose: 2.0 mg/kg/injection, schedule: Q04DX003 (ip), vehicle: saline 106 % of control | dose: 4.0 mg/kg/injection, schedule: Q01DX009 (ip), vehicle: saline 108 % of control | dose: 4.0 mg/kg/injection, schedule: Q04DX003 (ip), vehicle: saline 101 % of control | dose: 8.0 mg/kg/injection, schedule: Q01DX009 (ip), vehicle: saline 107 % of control | dose: 8.0 mg/kg/injection, schedule: Q04DX003 (ip), vehicle: saline 94 % of control and 97 % of control

CCN(CC)CCCC(C)Nc1cc(N)nc2nc(-c3ccc(Cl)cc3)cnc12 (stereo not given)
inactive: dose: 75.0 mg/kg/injection, schedule: Q01DX001 (ip), vehicle: saline 94 % of control | dose: 150.0 mg/kg/injection, schedule: Q01DX001 (ip), vehicle: saline 101 % of control

CC1(C)N=CN=C(N)N1c1ccc(CCC(=O)Nc2ccc(S(=O)(=O)F)cc2)c(Cl)c1
inactive: [2] 114 % of control | [4] 112 % of control | [6] 109 % of control

N#CCCP(CCC#N)CCCCCCP(CCC#N)CCC#N
inactive: dose: 25.0 mg/kg/injection, schedule: Q04DX003 (ip), vehicle: saline with Tween-80 97 % of control | dose: 50.0 mg/kg/injection, schedule: Q04DX003 (ip), vehicle: saline with Tween-80 90 % of control | [2] 96 % of control and 90 % of control
